Results published in US20230192700A1, “PYRAZOLOPYRAZINES ACTING ON CANCERS VIA INHIBITION OF CDK12” (Bayer Aktiengesellschaft, priority 2020, published 2023).
pIC50: −log10 of the molar value.

Legend:
CDK9/CyclinT1 = target: T1, CDK9/CyclinT1 (Homo sapiens, UniProt P50750); assay: CDK9/CycT1 high ATP kinase assay (TR-FRET); type: biochemical; settings: 2 mM ATP (high ATP); median; read-out: CDK9/CyclinT1, 2 mM ATP (high ATP) IC50 - [mol/l] (median)
T1 construct: Recombinant full-length His-tagged human CDK9 and CycT1; His-tag; purchased Life Technologies PV4131; host or cells: insect cells
T1 sequence (P50750 whole entry): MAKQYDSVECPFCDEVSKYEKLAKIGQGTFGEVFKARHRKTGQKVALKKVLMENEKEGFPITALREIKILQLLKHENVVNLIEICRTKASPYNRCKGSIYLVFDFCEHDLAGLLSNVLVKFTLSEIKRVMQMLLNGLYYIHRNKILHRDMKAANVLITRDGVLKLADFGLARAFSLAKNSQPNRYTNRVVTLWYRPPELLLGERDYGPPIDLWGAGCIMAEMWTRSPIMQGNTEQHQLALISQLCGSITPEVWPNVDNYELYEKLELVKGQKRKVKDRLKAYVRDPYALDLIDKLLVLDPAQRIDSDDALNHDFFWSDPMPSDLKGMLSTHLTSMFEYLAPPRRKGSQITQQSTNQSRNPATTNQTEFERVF
T1 sequence (O60563 whole entry partner): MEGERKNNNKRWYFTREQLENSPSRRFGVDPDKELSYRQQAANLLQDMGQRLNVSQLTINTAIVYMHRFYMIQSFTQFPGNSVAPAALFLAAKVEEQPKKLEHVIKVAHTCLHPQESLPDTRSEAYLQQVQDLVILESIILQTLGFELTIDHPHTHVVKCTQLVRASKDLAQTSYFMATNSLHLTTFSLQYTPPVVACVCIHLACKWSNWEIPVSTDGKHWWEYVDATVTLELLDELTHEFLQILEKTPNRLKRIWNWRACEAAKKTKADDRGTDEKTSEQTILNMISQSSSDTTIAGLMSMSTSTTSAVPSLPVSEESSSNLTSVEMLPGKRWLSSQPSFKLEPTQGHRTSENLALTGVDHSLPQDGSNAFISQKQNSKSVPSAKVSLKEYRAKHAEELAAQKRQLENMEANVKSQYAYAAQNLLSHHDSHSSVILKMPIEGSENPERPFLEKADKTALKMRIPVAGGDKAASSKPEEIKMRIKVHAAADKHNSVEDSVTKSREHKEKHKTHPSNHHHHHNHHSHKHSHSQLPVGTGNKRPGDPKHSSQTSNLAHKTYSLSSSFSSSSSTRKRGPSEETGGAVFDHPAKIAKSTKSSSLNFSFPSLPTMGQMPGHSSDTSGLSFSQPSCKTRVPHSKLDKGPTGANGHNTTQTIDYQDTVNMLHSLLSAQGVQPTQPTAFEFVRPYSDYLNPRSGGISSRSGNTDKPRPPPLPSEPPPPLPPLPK
Protocol: 2.5 CDK9/CycT1 High ATP Kinase Assay
CDK9/CycT1 -inhibitory activity of compounds of the present invention at a high ATP concentration after preincubation of enzyme and test compounds was quantified employing the CDK9/CycT1 TR-FRET assay as described in the following paragraphs.
Recombinant full-length His-tagged human CDK9 and CycT1, expressed in insect cells and purified by Ni-NTA affinity chromatography, were purchased from Life Technologies (Cat. No PV4131). As substrate for the kinase reaction biotinylated peptide biotin-Ttds-YISPLKSPYKISEG (C-terminus in amide form) was used which can be purchased e.g. form the company JERINI peptide technologies (Berlin, Germany).
For the assay 50 nanoL of a 100 fold concentrated solution of the test compound in DMSO was pipetted into either a black low volume 384 well microtiter plate or a black 1536 well microtiter plate (both Greiner Bio-One, Frickenhausen, Germany), 2 microL of a solution of CDK9/CycT1 in aqueous assay buffer [50 millimol/L Tris/HCl pH 8.0, 10 millimol/L MgCl2, 1.0 millimol/L dithiothreitol, 0.1 millimol/L sodium ortho-vanadate, 0.01% (v/v) Nonidet-P40 (Sigma)] were added and the mixture was incubated for 15 min at 22° C. to allow pre-binding of the test compounds to the enzyme before the start of the kinase reaction. Then the kinase reaction was started by the addition of 3 microL of a solution of adenosine-tri-phosphate (ATP, 3.3 millimol/L=>final conc. in the 5 microL assay volume is 2 millimol/L) and substrate (1.25 micromol/L =>final conc. in the 5 microL assay volume is 0.75 micromol/L) in assay buffer and the resulting mixture was incubated for a reaction time of 25 min at 22° C. The concentration of CDK9/CycT1 was adjusted depending of the activity of the enzyme lot and was chosen appropriate to have the assay in the linear range, typical concentrations were in the range of 0.5 microg/mL. The reaction was stopped by the addition of 3 microL of a solution of TR-FRET detection reagents (0.33 micromol/L streptavidine-XL665 [Cisbio Bioassays, Codolet, France] and 1.67 nanomol/L anti-RB(pSer807/pSer811)-antibody from BD Pharmingen [#558389] and 2 nanomol/L LANCE EU-W1024 labeled anti-mouse IgG antibody [Perkin-Elmer, product no. AD0077]) in an aqueous EDTA-solution (167 millimol/L EDTA, 0.2% (w/v) bovine serum albumin in 100 millimol/L HEPES pH 7.5).
The resulting mixture was incubated 1 h at 22° C. to allow the formation of complex between the phosphorylated biotinylated peptide and the detection reagents. Subsequently the amount of phosphorylated substrate was evaluated by measurement of the resonance energy transfer from the Eu-chelate to the streptavidine-XL. Therefore, the fluorescence emissions at 620 nm and 665 nm after excitation at 350 nm was measured in a TR-FRET reader, e.g. a Pherastar (BMG Labtechnologies, Offenburg, Germany) or a Viewlux (Perkin-Elmer). The ratio of the emissions at 665 nm and at […] was taken as the measure for the amount of phosphorylated substrate. The data were normalised (enzyme reaction without inhibitor=0% inhibition, all other assay components but no enzyme=100% inhibition).

CDK12 = target: T2, CDK12 (Homo sapiens, UniProt Q9NYV4); assay: CDK12 nuclear protein level: immunofluorescence/high content analysis in CAL-120 cells; type: cell-based; settings: for DC50: CAL-120 cells, 24 h, nuclear CDK12 staining intensity, median, read-out: CDK12 degradation IF DC50 - [mol/l] (median); for (IC50 CDK12 high ATP) to (Degradation DC50 CDK12) ratio: ratio of IC50 CDK12 hATP (2 mM ATP) to DC50 CDK12 (IF, CAL-120)
T2 construct: endogenous in cells; host or cells: CAL-120 human breast cancer cells (DSMZ ACC 459)
T2 sequence (Q9NYV4 whole entry): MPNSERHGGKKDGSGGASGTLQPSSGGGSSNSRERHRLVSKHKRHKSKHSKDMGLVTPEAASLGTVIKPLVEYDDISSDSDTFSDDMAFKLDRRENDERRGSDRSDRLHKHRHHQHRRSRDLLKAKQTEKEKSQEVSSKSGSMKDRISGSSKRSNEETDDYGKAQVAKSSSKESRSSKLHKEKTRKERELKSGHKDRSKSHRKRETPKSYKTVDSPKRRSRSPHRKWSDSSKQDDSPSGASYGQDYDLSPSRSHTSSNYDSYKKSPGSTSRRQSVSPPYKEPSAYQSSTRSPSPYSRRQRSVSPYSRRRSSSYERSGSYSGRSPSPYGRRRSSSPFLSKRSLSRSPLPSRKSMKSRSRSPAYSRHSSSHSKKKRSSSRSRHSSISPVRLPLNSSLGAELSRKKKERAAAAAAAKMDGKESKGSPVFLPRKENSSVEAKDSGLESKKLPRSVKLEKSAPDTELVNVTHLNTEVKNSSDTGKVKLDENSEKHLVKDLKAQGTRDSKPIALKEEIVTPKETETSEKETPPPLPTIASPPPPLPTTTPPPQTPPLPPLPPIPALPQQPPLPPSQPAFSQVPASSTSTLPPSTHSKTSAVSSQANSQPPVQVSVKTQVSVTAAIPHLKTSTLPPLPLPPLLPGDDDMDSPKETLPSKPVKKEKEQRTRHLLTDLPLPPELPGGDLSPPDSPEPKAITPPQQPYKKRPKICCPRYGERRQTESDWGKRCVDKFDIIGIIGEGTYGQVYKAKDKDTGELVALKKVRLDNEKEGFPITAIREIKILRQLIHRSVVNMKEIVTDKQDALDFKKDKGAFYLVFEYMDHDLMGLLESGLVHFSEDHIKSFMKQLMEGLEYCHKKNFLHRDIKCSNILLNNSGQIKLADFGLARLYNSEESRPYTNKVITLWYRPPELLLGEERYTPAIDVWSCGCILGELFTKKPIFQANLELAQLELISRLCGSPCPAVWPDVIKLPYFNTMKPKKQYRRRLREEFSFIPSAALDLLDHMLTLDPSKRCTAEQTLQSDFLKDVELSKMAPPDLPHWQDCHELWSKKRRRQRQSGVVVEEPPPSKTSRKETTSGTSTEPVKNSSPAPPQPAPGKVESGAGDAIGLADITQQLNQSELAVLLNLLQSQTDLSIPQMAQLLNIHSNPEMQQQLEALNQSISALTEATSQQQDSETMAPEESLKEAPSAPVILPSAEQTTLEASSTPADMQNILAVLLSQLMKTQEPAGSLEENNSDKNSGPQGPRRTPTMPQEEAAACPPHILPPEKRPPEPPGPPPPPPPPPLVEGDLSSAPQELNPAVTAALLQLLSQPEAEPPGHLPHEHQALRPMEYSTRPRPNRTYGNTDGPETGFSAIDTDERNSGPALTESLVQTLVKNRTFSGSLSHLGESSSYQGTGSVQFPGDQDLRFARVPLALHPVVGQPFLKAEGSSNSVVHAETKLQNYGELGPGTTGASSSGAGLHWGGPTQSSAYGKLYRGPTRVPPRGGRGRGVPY
T2 sequence (O75909 whole entry partner): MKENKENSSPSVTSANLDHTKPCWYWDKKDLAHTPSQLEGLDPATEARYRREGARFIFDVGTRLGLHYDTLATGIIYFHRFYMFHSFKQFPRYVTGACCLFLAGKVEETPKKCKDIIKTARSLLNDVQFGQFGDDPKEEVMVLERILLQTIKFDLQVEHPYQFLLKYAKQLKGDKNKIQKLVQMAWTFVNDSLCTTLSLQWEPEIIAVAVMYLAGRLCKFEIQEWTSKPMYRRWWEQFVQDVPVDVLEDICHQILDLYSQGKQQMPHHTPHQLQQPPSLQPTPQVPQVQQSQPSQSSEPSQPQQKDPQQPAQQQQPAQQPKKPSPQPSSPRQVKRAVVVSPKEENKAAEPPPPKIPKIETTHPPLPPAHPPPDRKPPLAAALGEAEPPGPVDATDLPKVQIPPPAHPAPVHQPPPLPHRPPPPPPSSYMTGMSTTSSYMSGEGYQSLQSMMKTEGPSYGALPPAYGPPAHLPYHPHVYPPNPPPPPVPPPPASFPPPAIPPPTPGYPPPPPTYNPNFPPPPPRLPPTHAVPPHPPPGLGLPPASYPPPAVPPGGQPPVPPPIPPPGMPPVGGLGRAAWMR
Protocol: 6. CDK12 Nuclear Protein Level: Immunofluorescence/High Content Analysis
In the context of the present invention, the term “DC50 CDK12” refers to the DC50 values obtained according to the assay described in this section (6) herein below, i.e. the DC50 values for the degradation of CDK12.:
CAL-120 human breast cancer cells (DSMZ ACC 459) are seeded in 1536-well microtiter plates (800 cells per well) containing 50 nanoL of compounds in Dose-Response. Control wells received DMSO or Reference Example 1. Plates are then incubated for 24 h at 37° C. in an humidified incubator and fixed with 4% PFA for 10 min. Then immunofluorescence (IF) against CDK12 (CellSignalling CDK12 Antibody #11973, rabbit, 1:100 dilution) is performed using standard IF protocols. Cells are then stained with Hoechst 33342 (Life Technologies, H-1399, 0.1 microg/mL) and imaged on an automated confocal microscopy system (e.g. Perkin Elmer Opera Phenix). Nuclear and cytoplasmic intensity as well as the nuclear/cytoplasmic intensity ratio is determined by automated image analysis using custom generated scripts (MetaXpress). Data is then transferred to Genedata Screener software, normalized to DMSO and control and DC50 values (degrading concentration to achieve 50% reduction of nuclear CDK12 staining intensity relative to controls) are reported.

SMILES	pIC50 (CDK9/CyclinT1)	DC50 (CDK12) [nM]	(IC50 CDK12 high ATP) to (Degradation DC50 CDK12) ratio (CDK12)
O[C@H]1C[C@@H](Cn2nc(NCc3nc4ccccc4[nH]3)c3ncc(C4CC4)nc32)C1 [Example 71, cis-3-[(3-{[(1H-benzimidazol-2-yl)methyl]amino}-6-cyclopropyl-1H-pyrazolo[3,4-b]pyrazin-1-yl)methyl]cyclobutan-1-ol]	< 4.70	27.7	
COCCC(C)n1nc(NCc2nc3ccccc3[nH]2)c2ncc(C3CC3)nc21 (single isomer, unassigned; (+)) [Example 59, (+)-N-[(1H-benzimidazol-2-yl)methyl]-6-cyclopropyl-1-[4-methoxybutan-2-yl]-1H-pyrazolo[3,4-b]pyrazin-3-amine]	< 4.70	32.4	>618
CN1CCCC(n2nc(NCc3nc4ccccc4[nH]3)c3ncc(C4CC4)nc32)CC1 (racemic) [Example 34, (±)-N-[(1H-benzimidazol-2-yl)methyl]-6-cyclopropyl-1-(1-methylazepan-4-yl)-1H-pyrazolo[3,4-b]pyrazin-3-amine]	< 4.70	14.2	
c1ccc2[nH]c(CNc3nn(C4C[C@H]5CC[C@@H](C4)O5)c4nc(C5CC5)cnc34)nc2c1 (stereo partly drawn) [Example 45, exo/endo-N-[(1H-benzimidazol-2-yl)methyl]-6-cyclopropyl-1-(8-oxabicyclo[3.2.1]octan-3-yl)-1H-pyrazolo[3,4-b]pyrazin-3-amine]	< 4.70	8.11	
Cc1cccc2[nH]c(CNc3nn(C4CCN(C)CC4)c4nc(C5CC5)cnc34)nc12 [Example 8, 6-cyclopropyl-N-[(4-methyl-1H-benzimidazol-2-yl)methyl]-1-(1-methylpiperidin-4-yl)-1H-pyrazolo[3,4-b]pyrazin-3-amine]	< 4.70	8.53	>2344
CN1CCC(n2nc(NCc3nc4c(Br)cccc4[nH]3)c3ncc(C4CC4)nc32)CC1 [Example 20, N-[(4-bromo-1H-benzimidazol-2-yl)methyl]-6-cyclopropyl-1-(1-methylpiperidin-4-yl)-1H-pyrazolo[3,4-b]pyrazin-3-amine]	< 4.70	22.2	>1050
Fc1ccc2[nH]c(CNc3nn(C4CCOCC4)c4nc(C5CC5)cnc34)nc2c1F [Example 32, 6-cyclopropyl-N-[(4,5-difluoro-1H-benzimidazol-2-yl)methyl]-1-(oxan-4-yl)-1H-pyrazolo[3,4-b]pyrazin-3-amine]	< 4.70	11.5	
O[C@H]1CC[C@@H](n2nc(NCc3nc4ccccc4[nH]3)c3ncc(C4CC4)nc32)CC1 [Example 51, cis-4-(3-{[(1H-benzimidazol-2-yl)methyl]amino}-6-cyclopropyl-1H-pyrazolo[3,4-b]pyrazin-1-yl)cyclohexan-1-ol]	< 4.70	10.7	
CN1CCC(n2nc(NCc3nc4cc(Cl)c(Cl)cc4[nH]3)c3ncc(C4CC4)nc32)CC1 [Example 19, 6-cyclopropyl-N-[(5,6-dichloro-1H-benzimidazol-2-yl)methyl]-1-(1-methylpiperidin-4-yl)-1H-pyrazolo[3,4-b]pyrazin-3-amine]	< 4.70	4.66	>4294
CC(CCN(C)C)n1nc(NCc2nc3ccccc3[nH]2)c2ncc(C3CC3)nc21 (single isomer, unassigned) [Example 64, (−) or(+)-N-[(1H-benzimidazol-2-yl)methyl]-6-cyclopropyl-1-[4-(dimethylamino)butan-2-yl]-1H-pyrazolo[3,4-b]pyrazin-3-amine]	< 4.70	82.6	>242
Cc1cccc2[nH]c(CNc3nn(C4CCOCC4)c4nc(C5CC5)cnc34)nc12 [Example 33, 6-cyclopropyl-N-[(4-methyl-1H-benzimidazol-2-yl)methyl]-1-(oxan-4-yl)-1H-pyrazolo[3,4-b]pyrazin-3-amine]	< 4.70	8.65	>2312
Cc1ccc2[nH]c(CNc3nn(C4CCN(C)CC4)c4nc(C5CC5)cnc34)nc2c1C [Example 28, 6-cyclopropyl-N-[(4,5-dimethyl-1H-benzimidazol-2-yl)methyl]-1-(1-methylpiperidin-4-yl)-1H-pyrazolo[3,4-b]pyrazin-3-amine]	< 4.70	10.6	>1880
CN1CCC(n2nc(NCc3nc4c(F)cccc4[nH]3)c3ncc(C4CC4)nc32)CC1 [Example 3, 6-cyclopropyl-N-[(4-fluoro-1H-benzimidazol-2-yl)methyl]-1-(1-methylpiperidin-4-yl)-1H-pyrazolo[3,4-b]pyrazin-3-amine]	< 4.70	1.92	
c1ccc2[nH]c(CNc3nn(C4CCOC4)c4nc(C5CC5)cnc34)nc2c1 (single isomer, unassigned) [Example 17, (+) or (−)-N-[(1H-benzimidazol-2-yl)methyl]-6-cyclopropyl-1-(oxolan-3-yl)-1H-pyrazolo[3,4-b]pyrazin-3-amine]	< 4.70	24.8	>807
CN1CCC(n2nc(NCc3nc4ccccc4[nH]3)c3ncc(C4CC4)nc32)C1 (single isomer, unassigned) [Example 78, (+) or (−)-N-[(1H-benzimidazol-2-yl)methyl]-6-cyclopropyl-1-(1-methylpyrrolidin-3-yl)-1H-pyrazolo[3,4-b]pyrazin-3-amine]	< 4.70	33.6	>596
CC1COCCC1n1nc(NCc2nc3ccccc3[nH]2)c2ncc(C3CC3)nc21 (racemic) [Example 42, (±)-cis/trans-N-[(1H-benzimidazol-2-yl)methyl]-6-cyclopropyl-1-(3-methyloxan-4-yl)-1H-pyrazolo[3,4-b]pyrazin-3-amine]	< 4.70	11.1	>2322
CC(C)(O)CCn1nc(NCc2nc3ccccc3[nH]2)c2ncc(C3CC3)nc21 [Example 76, 4-(3-{[(1H-benzimidazol-2-yl)methyl]amino}-6-cyclopropyl-1H-pyrazolo[3,4-b]pyrazin-1-yl)-2-methylbutan-2-ol]	< 4.70	2.17	>9202
Fc1cccc2[nH]c(CNc3nn(C4CCOCC4)c4nc(C5CC5)cnc34)nc12 [Example 23, 6-cyclopropyl-N-[(4-fluoro-1H-benzimidazol-2-yl)methyl]-1-(oxan-4-yl)-1H-pyrazolo[3,4-b]pyrazin-3-amine]	< 4.70	31.7	388
